Earlier results, collected in patent US12091391B2, “Reagents and methods for bioorthogonal labeling of biomolecules in living cells” (Oregon State University, priority 2015, dated 2024).

For “cyclopropane-fused trans cyclooctene [sTCO]”, the half-life in vivo is listed as 16.1 h.
